This experiment deals with HT-29 cells. Briefly: HT29 Cells 0FBS Assay In Vitro (TNF-α/SMAC mimetic/zVAD-FMK induced necroptosis, CellTiter-Glo cell viability). It is filed as cell-based. Particulars: Homo sapiens, HT-29 cells, FBS free medium, TNF-α (10 ng/ml), SMAC mimetic (6 uM), zVAD-FMK (10 μM), 20 hours, geometric mean EC50. From the text:
Protocol for HT29 Cells 0FBS Assay In Vitro
• Cell line: HT-29 (ATCC® HTB-38™) • Culture medium: McCOY's 5 A, Gibco, Cat No. 16600-082 • FBS, Gibco, Cat No. 10099-141C • Trypsin: Gibco, Cat No. 25200-056 • DMSO: Sigma, Cat No. 67-68-5, 1 L • Assay plate: Corning #3903 • Compound dilution plate: Corning #3357 • Inducers: TNFα, GenScript, Cat No. ZO1001-50, • SmacM, Cat. No., HY-15989, MedChemExpress (MCE) • Z_VAD FMK, TargetMol, T6013 • Cell Titer-Glo® Luminescent Cell Viability Assay Kit: Promega, Cat No. G7573 • EnVision: PerkinElmer, 2105-0010 2. Cell Seeding of HT-29 Cells • 1) HT-29 cells were checked every day to make sure they are healthy and growing as expected. They were split sub-culturing when were approximately 80% confluent. • 2) First pre-warm the culture medium of McCOY's 5 A medium (Gibco, Cat No. 16600-082) with 10% FBS (Gibco, Cat No. 10099-141C) in 37° C. water bath for at least 30 min. • 3) Growing cells to desired level of confluency 80% in a T75 flask, aspirate the medium, and wash with warm PBS two times. • 4) Add 2-3 ml fresh warm trypsin (Gibco, Cat No. 25200-056) solution. Transfer the flask to a 37° C. incubator. • 5) After 5 minutes, tap the side of the flask, and examine the flask under a microscope for lifting. If necessary, return the cells to the incubator for an additional 5-10 minutes, with occasional tapping, until lifting is complete. • 6) Quickly neutralize the trypsin reaction by adding 6-9 ml cell culture medium, then transfer the cells to sterile 15 ml conical tubes. Pellet the cells by centrifugation at 300×g for 7 minutes, then decant the supernatant. • 7) Resuspend the cells in fresh cell culture medium. Do cell counting with hemocytometer. • 8) Seed 100 μl of 5,000 cells into each well of the sterile 96-well cell culture plate (Corning 3903) and culture overnight at 37° C. with 5% C02. 3. Compounds Titration and Treatment of HT-29 Cells • 1) All batches of compounds (CPDs) (e.g., compound 1-281) were dissolved in DMSO (Dimethyl sulfoxide) as 20 mM stock solution. • 2) Take 3 ul 20 mM stock solution of CPDs to 27 ul DMSO and mix well, continue the titration ratio of 1:3 (20 ul CPDs+40 ul DMSO), e.g., to give solutions of CPDS at 6.6 mM, 2.2 mM, etc., till the 10 points end. • 3) Take out assay plates with HT-29 cells from incubator, remove all culture medium then wash 1 time with 1×PBS, and change fresh McCOY's 5 A medium of FBS free with a cocktail of TNF-α (10 ng/ml), the SMAC mimetic (6 uM) and zVAD-FMK (10 μM) to stimulate the HT-29 cells to increase pRIPK1 levels and necroptosis. • 4) Add 0.5 μL of the diluted compound to the corresponding 96-well assay plates. • 5) Incubate the assay plates for 20 hours at 37° C. with 5% C02. 4. Performing Cell Viability Detection of HT-29 Cells after Treated with Compounds • 1) The CellTiter-Glo® Luminescent Cell Viability Assay was employed to detect the ATP levels of viable HT-29 cells. • 2) Equilibrate the CellTiter-Glo® buffer and the lyophilized substrate to room temperature prior to use. • 3) Resuspend the CellTiter-Glo® substrate with CellTiter-Glo® buffer, mix by gently vortexing to obtain a homogeneous solution. • 4) Pipette 20 μl the enzyme/substrate mixture by multi-channel pipette into the 96-well assay plates from step 5) under the Compounds titration and treatment stage. • 5) Place the plates on an orbital shaker and mix the contents for 3 minutes to induce cell lysis. • 6) Then allow the plates to incubate at room temperature for 10 minutes to stabilize luminescent signal. • 7) Read and record luminescence signal with EnVision. • 8) The geometric mean EC50 of the compounds were calculated from points response dose with duplicate. In Tables 2 and 4, activity is provided as follows: +++=0.1 nM≤EC50<100 nM; ++=100 nM≤EC50<1000 nM; +=1000 nM≤EC50<10000 nM.
On the technique in general: Cellular ATP, detected with luciferase, serves as a proxy for viable cell number.

Where [1] appears, read: read-out: Cell activity (EC50) of Compounds 117-281.
The mark [2] stands for this setting: read-out: Cell activity (EC50) of Compounds 1-116.

pEC50: −log10 of the molar value. Read-outs that look alike come from different tables or passages of the source.

Broadly, the pEC50 is the EC50 on a negative log10 scale, so that one unit is a factor of ten. `CCS(=O)(=O)c1c(C)nn(-c2cc(OC3CN(C(=O)N4N=CC[C@H]4c4cc(F)cc(F)c4)C3)c(F)cn2)c1C` [compound 167, (S)-(5-(3,5-difluorophenyl)-4,5-dihydro-1H-pyrazol-1-yl)(3-((2-(4-(ethylsulfonyl)-3,5-dimethyl-1H-pyrazol-1-yl)-5-fluoropyridin-4-yl)oxy)azetidin-1-yl)methanone]: the pEC50 under setting [1] was 7.00 to 10.00.

As to `Cc1nnn(C)c1-c1ncc(F)c(OC2CN(C(=O)N3N=CC[C@H]3c3cc(F)cc(F)c3)C2)n1` [compound 46, (S)-(5-(3,5-difluorophenyl)-4,5-dihydro-1H-pyrazol-1-yl)(3-((2-(1,4-dimethyl-1H-1,2,3-triazol-5-yl)-5-fluoropyrimidin-4-yl)oxy)azetidin-1-yl)methanone], the negative logarithm of the EC50 (pEC50) under setting [2] is 7.00 to 10.00.

Consider `Cc1c(-c2cc(OC3CN(C(=O)N4N=CC[C@H]4c4cc(F)cc(F)c4)C3)c(F)cn2)nn(C)c1C#N` [compound 237, (S)-3-(4-((1-(5-(3,5-difluorophenyl)-4,5-dihydro-1H-pyrazole-1-carbonyl)azetidin-3-yl)oxy)-5-fluoropyridin-2-yl)-1,4-dimethyl-1H-pyrazole-5-carbonitrile], for which the negative-log EC50 (pEC50) under setting [1] is 7.00 to 10.00.

Consider `Cc1nn(-c2cc(OC3CN(C(=O)N4N=CC[C@H]4c4cc(F)cc(F)c4)C3)c(F)cn2)c(C)c1S(=O)(=O)Cc1ccccc1` [compound 236, (S)-(3-((2-(4-(benzylsulfonyl)-3,5-dimethyl-1H-pyrazol-1-yl)-5-fluoropyridin-4-yl)oxy)azetidin-1-yl)(5-(3,5-difluorophenyl)-4,5-dihydro-1H-pyrazol-1-yl)methanone], for which the pEC50 under setting [1] was 7.00 to 10.00.

For the compound `Cc1nn(C)c(N)c1-c1cc(OC2CN(C(=O)N3N=CC[C@H]3c3cc(F)cc(F)c3)C2)c(F)cn1` [compound 210, (S)-(3-((2-(5-amino-1,3-dimethyl-11H-pyrazol-4-yl)-5-fluoropyridin-4-yl)oxy)azetidin-1-yl)(5-(3,5-difluorophenyl)-4,5-dihydro-1H-pyrazol-1-yl)methanone], the pEC50 under setting [1] was 7.00 to 10.00.

As to `CN(C)CCNc1cnn(C)c1-c1cc(OC2CN(C(=O)N3N=CC[C@H]3c3cc(F)cc(F)c3)C2)c(F)cn1` [compound 119, (S)-(5-(3,5-difluorophenyl)-4,5-dihydro-1H-pyrazol-1-yl)(3-((2-(4-((2-(dimethylamino)ethyl)amino)-1-methyl-1H-pyrazol-5-yl)-5-fluoropyridin-4-yl)oxy)azetidin-1-yl)methanone], under setting [1], the pEC50 was 6.00 to 7.00.

For `Cc1c(-c2cc(OC3CN(C(=O)N4N=CC[C@H]4c4cc(F)cc(F)c4)C3)c(F)cn2)nn(C)c1C(=O)NC1COC1` [compound 262, (S)-3-(4-((1-(5-(3,5-difluorophenyl)-4,5-dihydro-1H-pyrazole-1-carbonyl)azetidin-3-yl)oxy)-5-fluoropyridin-2-yl)-1,4-dimethyl-N-(oxetan-3-yl)-1H-pyrazole-5-carboxamide], the pEC50 under setting [1] was 7.00 to 10.00.

For `CNC(=O)Cc1c(C)nn(-c2cc(OC3CN(C(=O)N4N=CC[C@H]4c4cc(F)cc(F)c4)C3)c(F)cn2)c1C` [compound 226, (S)-2-(1-(4-((1-(5-(3,5-difluorophenyl)-4,5-dihydro-1H-pyrazole-1-carbonyl)azetidin-3-yl)oxy)-5-fluoropyridin-2-yl)-3,5-dimethyl-1H-pyrazol-4-yl)-N-methylacetamide], under setting [1], the pEC50 is 7.00 to 10.00.

With `Cc1cc(-c2ncc(F)c(OC3CN(C(=O)N4N=CC[C@H]4c4cc(F)cc(F)c4)C3)n2)n(C)n1` [compound 35, (S)-(5-(3,5-difluorophenyl)-4,5-dihydro-1H-pyrazol-1-yl)(3-((2-(1,3-dimethyl-1H-pyrazol-5-yl)-5-fluoropyrimidin-4-yl)oxy)azetidin-1-yl)methanone], under setting [2], the pEC50 was 7.00 to 10.00.

In the case of `Cn1ncc(C(=O)N2CCCCC2)c1-c1cc(OC2CN(C(=O)N3N=CC[C@H]3c3cc(F)cc(F)c3)C2)c(F)cn1` [compound 76, (S)-(5-(3,5-difluorophenyl)-4,5-dihydro-1H-pyrazol-1-yl)(3-((5-fluoro-2-(1-methyl-4-(piperidine-1-carbonyl)-1H-pyrazol-5-yl)pyridin-4-yl)oxy)azetidin-1-yl)methanone], the pEC50 under setting [2] was 5.00 to 6.00.

Source of the values: patent US12655125B2 (SIRONAX LTD., priority 2020, dated 2026).
